Test results published in US6319702A, “Nucleic acids encoding mutant human carboxypeptidase A enzymes” (Glaxo Wellcome, Inc., priority 1993, dated 2001).
Like-named read-outs stand apart in the source and are kept apart here.

What was measured:
[1] = Stability and biodistribution of prodrugs in vivo (HPLC of plasma and tissues); design: species or system mice (CD-1 nude; BALB/C where indicated); conditions: for concentration of prodrug in cecum / concentration of prodrug in feces / concentration of prodrug in kidney / concentration of prodrug in large intestine / concentration of prodrug in liver / concentration of prodrug in small intestine / concentration of prodrug in spleen / concentration of prodrug in tumor / remaining at 0.5 h / remaining at 2 h / concentration at 0.5 h / concentration at 2 h: 50 mg/kg i.p. or i.v., CD-1 nude mice; for remaining at 0.5 h / remaining at 2 h / concentration at 0.5 h / concentration at 2 h: mouse; for concentration at 0.5 h / concentration at 2 h: read-out: concentration of prodrug in plasma
[2] = target: T1, wild type human carboxypeptidase A1 (Homo sapiens, UniProt P15085); experiment: Enzyme kinetics of prodrugs with wild type human carboxypeptidase A1 (coupled assay); assay type: biochemical
T1 sequence (P15085 111-419): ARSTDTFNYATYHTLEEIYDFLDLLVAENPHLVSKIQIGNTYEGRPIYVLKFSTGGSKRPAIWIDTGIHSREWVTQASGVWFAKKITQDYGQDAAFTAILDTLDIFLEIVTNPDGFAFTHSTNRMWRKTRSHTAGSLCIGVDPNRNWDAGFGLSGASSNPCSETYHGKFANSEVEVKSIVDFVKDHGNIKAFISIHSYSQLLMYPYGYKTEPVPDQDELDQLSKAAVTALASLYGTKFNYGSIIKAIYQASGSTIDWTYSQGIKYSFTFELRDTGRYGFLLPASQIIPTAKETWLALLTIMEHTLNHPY
Excerpt: (§1) As indicated herein, the in vivo stable prodrug of the present invention should be a better substrate for a mutant enzyme than the corresponding wild type enzyme in order for the stable prodrug to be activated selectively at the tumour. […] The most relevant kinetic constant in the table is the kcat/Km, which provides an estimate of the second order rate constant for the enzyme catalyzed conversion of prodrug to methotrexate. Thus, the larger the kcat/Km, the more efficient the enzyme with a particular substrate. […] Thus, the single mutation at 268 from thr to gly converted very poor substrates in the wild type enzyme to excellent substrates in the mutant enzyme. […] Thus, the compounds are much better substrates for the mutant enzyme than the wild type enzyme which permits very specific tumor targeted activation of the nontoxic, stable prodrug to the active agent.
(§2) Kinetics were determined by a modification of the coupled assay of Kuefner, et al (1989) Biochemistry 28 2288-2297 in which the product MTX is converted by excess carboxypeptidase G to the pteroate of MTX. In this assay the reaction is followed spectrophotometrically at 315 nm; at this wavelength the change in molar absorbtivity for the coupled reaction was determined to be 9.57 mM^-1 cm^-1. Assays were performed at 25° C. in 25 mM tris-HCl, 100 mM NaCl, pH 7.4. Prodrugs were preincubated at 25° C. with buffer and 17 milliunits of Sigma #C-9658 carboxypeptidase G in 1 ml total volume. Assay was initiated with carboxypeptidase A or the appropriate mutant. Initial velocities were obtained, and standard Michaelis-Menten calculations were used to determine kinetic constants (in Biochemistry, Lehninger, A. L. 1970, Worth Publishers, Inc, NY).

268ala = experiment: Enzyme kinetics of prodrugs with 268ala mutant of human CPA1 (coupled assay); assay type: biochemical; conditions: 25° C., pH 7.4
Excerpt: as §1, §2

268gly = experiment: Enzyme kinetics of prodrugs with 268gly mutant of human CPA1 (coupled assay); assay type: biochemical; conditions: 268gly; 25° C., pH 7.4
Excerpt: as §1, §2

[3] = cecum, 50 mg/kg, CECUM, 30 min, read-out: stability: percentage of material observed as intact prodrug, cecum
[4] = cecum, 50 mg/kg, CECUM, 120 min, read-out: stability: percentage of material observed as intact prodrug, cecum
[5] = kidney, 50 mg/kg, KIDNEY, 30 min, read-out: stability: percentage of material observed as intact prodrug, kidney
[6] = kidney, 50 mg/kg, KIDNEY, 120 min, read-out: stability: percentage of material observed as intact prodrug, kidney
[7] = large intestine, 50 mg/kg, LARGE INTESTINE, 30 min, read-out: stability: percentage of material observed as intact prodrug, large intestine
[8] = large intestine, 50 mg/kg, LARGE INTESTINE, 120 min, read-out: stability: percentage of material observed as intact prodrug, large intestine
[9] = liver, 50 mg/kg, LIVER, 30 min, read-out: stability: percentage of material observed as intact prodrug, liver (converted)
[10] = liver, 50 mg/kg, LIVER, 120 min, read-out: stability: percentage of material observed as intact prodrug, liver
[11] = plasma, 50 mg/kg, PLASMA, 30 min
[12] = plasma, 50 mg/kg, PLASMA, 30 min, read-out: stability: percentage of material observed as intact prodrug, plasma
[13] = plasma, 50 mg/kg, PLASMA, 120 min
[14] = plasma, 50 mg/kg, PLASMA, 120 min, read-out: stability: percentage of material observed as intact prodrug, plasma
[15] = small intestine, 50 mg/kg, SMALL INTESTINE, 30 min, read-out: stability: percentage of material observed as intact prodrug, small intestine
[16] = small intestine, 50 mg/kg, SMALL INTESTINE, 120 min, read-out: stability: percentage of material observed as intact prodrug, small intestine
[17] = spleen, 50 mg/kg, SPLEEN, 30 min, read-out: stability: percentage of material observed as intact prodrug, spleen
[18] = spleen, 50 mg/kg, SPLEEN, 120 min, read-out: stability: percentage of material observed as intact prodrug, spleen
[19] = tumor, 50 mg/kg, TUMOR, 30 min, read-out: stability: percentage of material observed as intact prodrug, tumor
[20] = tumor, 50 mg/kg, TUMOR, 120 min, read-out: stability: percentage of material observed as intact prodrug, tumor

Compound	concentration of prodrug in cecum ([1]; CECUM, 30 min) [nmol/g]	concentration of prodrug in kidney ([1]; KIDNEY, 30 min) [nmol/g]	concentration of prodrug in kidney ([1]; KIDNEY, 120 min) [nmol/g]	concentration of prodrug in large intestine ([1]; LARGE INTESTINE, 30 min) [nmol/g]	concentration of prodrug in large intestine ([1]; LARGE INTESTINE, 120 min) [nmol/g]	concentration of prodrug in liver ([1]; LIVER, 30 min) [nmol/g]	concentration of prodrug in liver ([1]; LIVER, 120 min) [nmol/g]	concentration of prodrug in small intestine ([1]; SMALL INTESTINE, 30 min) [nmol/g]	concentration of prodrug in spleen ([1]; SPLEEN, 30 min) [nmol/g]	concentration of prodrug in tumor ([1]; TUMOR, 30 min) [nmol/g]	remaining at 0.5 h [1, 3] [%]	remaining at 0.5 h [1, 5] [%]	remaining at 0.5 h [1, 7] [%]	remaining at 2 h [1, 8] [%]	remaining at 0.5 h [1, 9] [%]	remaining at 2 h [1, 10] [%]	concentration at 0.5 h [1, 11] [µM]	remaining at 0.5 h [1, 12] [%]	concentration at 2 h [1, 13] [µM]	remaining at 2 h [1, 14] [%]	also measured
CN(Cc1cnc2nc(N)nc(N)c2n1)c1ccc(C(=O)N[C@@H](CCC(=O)O)C(=O)N[C@@H](CC(=O)O)C(=O)O)cc1 [Prodrug 6]	7.5	93.4	12.6	5.7	19.4	287.8	161.6	21.3	3.4	7.5	82	98	100	65	97	93	46.7	100	2	100	concentration of prodrug in cecum ([1]; CECUM, 120 min): 0.8 nmol/g; concentration of prodrug in feces ([1]; FECES, 30 min): 42 nmol/g; concentration of prodrug in feces ([1]; FECES, 120 min): 207 nmol/g; concentration of prodrug in small intestine ([1]; SMALL INTESTINE, 120 min): 14.2 nmol/g; concentration of prodrug in spleen ([1]; SPLEEN, 120 min): 0.0 nmol/g; concentration of prodrug in tumor ([1]; TUMOR, 120 min): 0.8 nmol/g; remaining at 2 h [1, 4]: 59%; remaining at 0.5 h ([1]; feces, 50 mg/kg, FECES, 30 min, read-out: stability: percentage of material observed as intact prodrug, feces (converted)): 21%; remaining at 2 h ([1]; feces, 50 mg/kg, FECES, 120 min, read-out: stability: percentage of material observed as intact prodrug, feces): 52%; remaining at 2 h [1, 6]: 98%; remaining at 0.5 h [1, 15]: 86%; remaining at 2 h [1, 16]: 54%; remaining at 0.5 h [1, 17]: 70%; remaining at 2 h [1, 18]: 0%; remaining at 0.5 h [1, 19]: 82%; remaining at 2 h [1, 20]: 59%
CN(Cc1cnc2nc(N)nc(N)c2n1)c1ccc(C(=O)N[C@@H](CCC(=O)O)C(=O)N[C@@H](Cc2ccccc2C(=O)O)C(=O)O)cc1 [Prodrug 7]	6.9	55.4	3.8	12.1	91.8	171.9	7.5	127.4	12.4	6.9	100	100	100	100	100	89	51.4	100	0.2	100	concentration of prodrug in cecum ([1]; CECUM, 120 min): 1.5 nmol/g; concentration of prodrug in small intestine ([1]; SMALL INTESTINE, 120 min): 24.1 nmol/g; concentration of prodrug in spleen ([1]; SPLEEN, 120 min): 1.0 nmol/g; concentration of prodrug in tumor ([1]; TUMOR, 120 min): 1.5 nmol/g; remaining at 2 h [1, 4]: 100%; remaining at 2 h [1, 6]: 100%; remaining at 0.5 h [1, 15]: 100%; remaining at 2 h [1, 16]: 97%; remaining at 0.5 h [1, 17]: 100%; remaining at 2 h [1, 18]: 100%; remaining at 0.5 h [1, 19]: 100%; remaining at 2 h [1, 20]: 100%
CN(Cc1cnc2nc(N)nc(N)c2n1)c1ccc(C(=O)N[C@@H](CCC(=O)O)C(=O)N[C@@H](Cc2ccccc2)C(=O)O)cc1 [Prodrug 10, N-(4-(((2,4-diamino-6-pteridinyl)methyl)methylamino)benzoyl)-L-glutam-1-yl-L-pheylalanine, reference compound]	3.0	26.9	0.0	19.3	1.1	335.1	0.6	17.3	19.9	3.0	65	100	65.3	21.6	94.4	7.55	17.8	30.2	1.1	2.1	stability in vivo (in words) ([1]; mice, 50 mg/kg): not stable in vivo; remaining at 0.5 h [1, 15]: 16%; remaining at 2 h [1, 16]: 0%; remaining at 0.5 h [1, 17]: 80.4%; remaining at 0.5 h [1, 19]: 65%; substrate for wild type CPA (in words) [2]: good substrate; Km (268ala): 0.9 µM; kcat (268ala): 2 s⁻¹; Km (268gly): 0.3 µM; kcat (268gly): 2.2 s⁻¹
